B1: ovalbumin (protein, UniProt P01012 2-386, looked up)
Ovalbumin: GSIGAASMEFCFDVFKELKVHHANENIFYCPIAIMSALAMVYLGAKDSTRTQINKVVRFDKLPGFGDSIEAQCGTSVNVHSSLRDILNQITKPNDVYSFSLASRLYAEERYPILPEYLQCVKELYRGGLEPINFQTAADQARELINSWVESQTNGIIRNVLQPSSVDSQTAMVLVNAIVFKGLWEKAFKDEDTQAMPFRVTEQESKPVQMMYQIGLFRVASMASEKMKILELPFASGTMSMLVLLPDEVSGLEQLESIINFEKLTEWTSSNVMEERKIKVYLPRMKMEEKYNLTSVLMAMGITDVFSSSANLSGISSAESLKISQAVHAAHAEINEAGREVVGSAEAGVDAASVSEEFRADHPFLFCIKHIATNAVLFFGRCVSP
notes: nominal antigen, Ovalbumin grade VII, Sigma

Key:
[1] = test system: Ova-specific target cells; assay: in vivo cytotoxic specific cell lysis assay (CD8+ T cell response) in immunized mice; set-up: species or system mouse; conditions: for specific lysis of Ova-specific target cells in blood: Example 1, FIG. 1, 1 μg adjuvant with 50 μg Ova, day 11; for specific lysis of Ova-specific target cells in blood / average Ova-specific cell lysis / average Ova-specific cytotoxic response: IV; for average Ova-specific cell lysis: Example 4, FIG. 6, 400 μg Ova with or without 1 μg adjuvant (PBS-57 new formulation); for average Ova-specific cell lysis / average Ova-specific cytotoxic response / average OVA-specific cytotoxic response: day 11 blood; for percentage of specific lysis of the target cells by CD8+ T cells: Example 5 Experiment B, FIG. 8, 50 μg OVA with 10 ng adjuvant intramuscularly; for average Ova-specific cytotoxic response: Example 2, FIG. 2; for average Ova-specific cytotoxic response / average OVA-specific cytotoxic response: 400 μg Ova with or without 1 μg adjuvant; for average OVA-specific cytotoxic response: Example 2, FIG. 3, IM
[2] = test system: CD8+ T cells responsive to OVA; assay: SIINFEKL pentamer assay of OVA-specific CD8+ T cells (FACS); type: in vivo, mouse; conditions: IM, days 0 and 14, blood day 21
Method: To verify the results obtained using the in vivo cytotoxicity assay described in the Examples above, similar experiments were performed and CD8+ T cell activation was determined by measuring the percentage of OVA-specific CD8+ T cells using a pentamer assay. Briefly, mice were injected intramuscularly with the indicated amounts of OVA and test adjuvant compound at either 1 μg or 100 ng per mouse, respectively on day 0 as follows:
Experiment A: • Group 1: 100 μl of PBS; • Group 2: 50 μg of Ova into 100 μl PBS; • Group 3: 50 μg of Ova with 1 μg αGalCer; • Group 4: 50 μg of Ova with 1 μg PBS-11 • Group 5: 50 μg of Ova with 1 μg PBS-14 • Group 6: 50 μg of Ova with 1 μg PBS-57 • Group 7: 50 μg of Ova with 1 μg PBS-96
Experiment B: • Group 1: 100 μl of PBS; • Group 2: 50 μg of Ova into 100 μl PBS; • Group 3: 50 μg of Ova with 100 ng αGalCer; • Group 4: 50 μg of Ova with 100 ng PBS-11 • Group 5: 50 μg of Ova with 100 ng PBS-14 • Group 6: 50 μg of Ova with 100 ng PBS-57 • Group 7: 50 μg of Ova with 100 ng PBS-96 A second injection was administered to the mice on day 14 and blood was collected from the mice on day 21. The lymphocytes were collected and analyzed by FACS analysis using H-2 K^b SIINFEKL pentamer and CD8 antibody to detect CD8+ T cells responsive to OVA.

[3] = test system: OVA specific IgG2a; assay: OVA-specific IgG2a ELISA after intramuscular immunization; type: in vivo, mouse; conditions: FIG. 12; IM, 50 μg OVA with 100 ng adjuvant, 14 days post-injection
Method: (§1) Mice (6 per group) were injected intramuscularly with 50 μg of OVA either alone or in combination with 100 ng of the indicated adjuvants (Freund's adjuvant was used as a positive control) as follows: • Group 1: […] of Ova with CFA/IFA (Positive control) • Group 2: 50 μg of Ova • Group 3: 50 μg of Ova and 100 ng of αGalCer • Group 4: 50 μg of Ova and 100 ng of PBS-11 • Group 5: 50 μg of Ova and 100 ng of PBS-14 • Group 6: 50 μg of Ova and 100 ng of PBS-57 • Group 7: 50 μg of Ova and 100 ng of PBS-96 At 14 days post-injection, blood samples were collected and ELISAs for IgG1 and IgG2a were performed using mouse monoclonal antibodies specific for OVA isotype IgG1 or IgG2a. The results are shown as the titer of the antibody in peripheral blood in ng/ml. The results for IgG1 are depicted in FIG. 11 and those for IgG2a are depicted in FIG. 12.

[4] = test system: OVA-specific IgG1; assay: OVA-specific IgG1 ELISA after intramuscular immunization; type: in vivo, mouse; conditions: FIG. 11; IM, 50 μg OVA with 100 ng adjuvant, 14 days post-injection
Method: as §1

[5] = test system: IFNγ; assay: in vivo IFNγ release in sera by ELISA 24 hours after inoculation; set-up: species or system C57BL/6 mice; conditions: Quantikine kit, FIG. 4
Method: To test the ability of the adjuvant test compounds to stimulate in vivo cytokine release, C57BL/6 mice were administered the compounds at different concentrations intravenously and the production of IFNγ in sera was measured 24 hours later by ELISA. Groups of 3 mice were inoculated intravenously (tail vein) on day 0 as follows: • Group 1: 100 μl of PBS alone • Group 2: 1 μg of αGalCer in 100 μl of PBS • Group 3: 100 ng of αGalCer in 100 μl of PBS • Group 4: 1 ng of αGalCer in 100 μl of PBS • Group 5: 0.1 ng of αGalCer in 100 μl of PBS • Group 6: 100 ng of αGalCer and 100 μg of Ova in 100 μl of PBS • Group 7: 1 μg of PBS-57 in 100 μl of PBS • Group 8: 100 ng of PBS-57 in 100 μl of PBS • Group 9: 1 ng of PBS-57 in 100 μl of PBS • Group 10: 0.1 ng of PBS-57 in 100 μl of PBS • Group 11: 100 ng of PBS-57 and 400 μg of Ova into 100 μl of PBS • Group 12: 1 μg of PBS-14 in 100 μl of PBS • Group 13: 100 ng of PBS-14 in 100 μl of PBS • Group 14: 1 ng of PBS-14 in 100 μl of PBS • Group 15: 0.1 ng of PBS-14 in 100 μl of PBS • Group 16: 100 ng of PBS-14 and 400 μg of Ova in 100 μl of PBS • Group 17: 1 μg of PBS-96 in 100 μl of PBS • Group 18: 100 ng of PBS-96 in 100 μl of PBS • Group 19: 1 ng of PBS-96 in 100 μl of PBS • Group 20: 0.1 ng of PBS-96 in 100 μl of PBS • Group 21: 100 ng of PBS-96 and 400 μg of Ova in 100 μl of PBS. 24 hours after inoculation, blood samples were collected from the mice and IFNγ levels were detected by ELISA kit. Two ELISA kits were used, Quantikine mouse IFNγ (RD systems) was used to test all samples and ELISA mIFNγ (Diaclone) was used to test group 1, 2, 3, 6, 7, 8, 11, 12, 13, 16, 17, 18 and 21. All sera were diluted before use in ELISA as follows:
Results are expressed as IFNγ concentration (pg/ml) in sera and take into account the dilution factor. FIG. 4 depicts results using the Quantikine mouse IFNγ kit by RD systems. FIG. 4A depicts results of IFNγ levels for mice immunized with PBS-57, FIG. 4B depicts results of IFNγ levels for mice immunized with PBS-14, FIG. 4C depicts results of IFNγ levels for mice immunized with PBS-96 and FIG. 4D depicts results of IFNγ levels for mice immunized with αGalCer. At 0.1 ng, all adjuvant candidates induce cytokine release, but mice immunized with αGalCer produced three- or four-fold less IFNγ than mice immunized with PBS-57, PBS-14 or PBS-96 (1540.57±397.53 pg/ml, 4398.05±880.86 pg/ml, 6669.31±1231.82 pg/ml, 5823.33±720.69 pg/ml respectively).
Another set of mice were used to compare the ability of adjuvant compounds to stimulate in vivo cytokine release by the method described above. Five groups of C57BL/6 mice were administered 100 ng of PBS-57, PBS-14, PBS-96, or PBS-11 in 100 μl PBS or 100 μl PBS alone intravenously. The production of IFNγ in sera was measured 24 hours later by ELISA. FIG. 5 depicts results for mice immunized with 100 ng of PBS-11, PBS-96, PBS-14 and PBS-57.

[6] = Example 6 Experiment A, FIG. 9, 50 μg Ova with 1 μg adjuvant

Row | Molecule | specific lysis of Ova-specific target cells in blood [1] | average Ova-specific cell lysis [1] [%] | percentage of specific lysis of the target cells by CD8+ T cells [1] | percentage of OVA specific CD8+ T cells [2, 6] | OVA specific IgG2a titer in peripheral blood [3] | average Ova-specific cytotoxic response [1] [%] | average OVA-specific cytotoxic response [1] [%] | enhancement of the CD8+ T cell response (specific lysis) at low doses ([1]; Example 5 Experiments A and B, FIGS. 7 and 8, 50 μg OVA with 100 ng or 10 ng adjuvant intramuscularly) | percentage of OVA specific CD8+ T cells ([2]; Example 6 Experiment B, FIG. 10, 50 μg Ova with 100 ng adjuvant) | OVA-specific IgG1 titer in peripheral blood [4] | IFNγ concentration in sera ([5]; 0.1 ng IV) [pg/mL] | IFNγ concentration in sera ([5]; 1 ng IV) [pg/mL] | IFNγ concentration in sera ([5]; 100 ng IV) [pg/mL] | IFNγ concentration in sera ([5]; 1 μg IV) [pg/mL]
1 | CCCCCCCCCCCCCCCCCCCCCCCCCC(=O)N[C@@H](CO[C@H]1O[C@H](CNC(=O)CCCC[C@@H]2SC[C@@H]3NC(=O)N[C@@H]32)[C@H](O)[C@H](O)[C@H]1O)[C@H](O)[C@H](O)CCCCCCCCCCCCCC [PBS-11, reference compound] | did not result in specific lysis of cells | 32.3±2.5 | indistinguishable from the controls | not as effective |  |  |  |  |  |  |  |  |  | 
2 | CCCCCCCCCCCCCCCCCCCCCCCCCC(=O)N[C@@H](CO[C@H]1O[C@H](CNC(C)=O)[C@H](O)[C@H](O)[C@H]1O)[C@H](O)[C@H](O)CCCCCCCCCCCCCC [PBS-14] | resulted in cytotoxic lysis of Ova-specific target cells | 83.3±6.1 |  | enhanced the percentage of OVA specific CD8+ T cells | about as well as Freund's adjuvant | 83.3±6.1 | 52.07±29.56 | unexpectedly better than other adjuvants | surprisingly much better at enhancing the CD8+ T cell response | able to elicit a robust IgG1 titer | 6669.31 ± 1231.82 | 7481.15 ± 3454.03 | 19582.18 ± 3421.20 | 16392.53 ± 5957.70
3 | CCCCCCCC/C=C\CCCCCCCCCCCCCC(=O)N[C@@H](CO[C@H]1O[C@H](CNC(C)=O)[C@H](O)[C@H](O)[C@H]1O)[C@H](O)[C@H](O)CCCCCCCCCCCCCC [PBS-57, reference compound] |  | 88.1±6.2 | indistinguishable from the controls | enhanced the percentage of OVA specific CD8+ T cells |  | 88.1±6.2 | 56.11±13.34 |  |  | able to elicit a robust IgG1 titer | 4398.05 ± 880.86 | 11425.98 ± 833.04 | 21432.76 ± 4312.76 | 3353.45 ± 867.57
4 | CCCCCCCCCCCCCCCCCCCCCCCCCC(=O)N[C@@H](CO[C@H]1O[C@H](CO)[C@H](O)[C@H](O)[C@H]1O)[C@H](O)[C@H](O)CCCCCCCCCCCCCC [αGalCer, α-galactosyceramide, reference compound] |  |  | indistinguishable from the controls | not as effective |  | 79.9±0.8 | −5.85±11.01 |  |  |  | 1540.57 ± 397.53 | 3802.99 ± 586.02 | 7714.37 ± 3529.07 | 
5 | B1 |  | 11.8±14.4 |  |  |  | 11.8±14.4 | 1.60±14.33 |  |  |  |  |  |  | 

From patent publication US8207135B2, “Compositions for and methods of enhancing the immune response to antigens” (Wittycell, priority 2007, dated 2012)
